In US8167866B2, “Drug delivery system for accelerated subcutaneous absorption” (priority 2004, dated 2012):

Assays:
[1] = typical duration; routine lidocaine versus tumescent infiltration; cited from earlier work
[2] = test system: cutaneous blood vessels; assay: topical application of aqueous solution, erythema of the affected area; assay type: in vivo, human; settings: patient, within minutes
Excerpt: The fluid or the solution of pharmacologic drug may include a crystalloid solution or a dilute solution of pharmacologic drug such as an antibiotic. The drug used to accelerate the absorption rate of the fluid or the pharmacologic drug is operative to cause capillary vasodilatation, that is, vasodilatation of cutaneous blood vessels. The dilation of capillaries increases the rate of blood flowing through the affected subcutaneous tissue; and consequently, increases the rate of absorption into the systemic circulation of the fluid or pharmacologic drug. As the rate of absorption and circulation of the fluid or pharmacologic drug increases, a clinically significant degree of systemic absorption of the fluid or pharmacologic drug can be achieved without the application of IV access. Currently, many drugs are available to provide the vasodilatation of cutaneous blood vessels of a human body. However, it is appreciated that those drugs which are pharmacologic and potentially toxic to the human bodies are not the appropriate candidates for such drug. For example, although lidocaine is effective to cause dilation of capillaries and increase the rate of blood flowing through affected subcutaneous tissue, which in turn accelerates the absorption rate of drug, it might not be an appropriate candidate for such a drug due to its potentially toxic effect if its concentration is too high. […]

In the case of `CCN(CC)CC(=O)Nc1c(C)cccc1C` [lidocaine], the “duration of local anesthesia” value [1] is given as roughly 2 h.

In the case of `CNC(=O)c1cccnc1` [methyl-nicotinamide], the “erythema of the affected area” value [2] is reported as “very obvious erythema”.

With `COC(=O)c1cccnc1` [methyl-nicotinate] the “erythema of the affected area” value [2] was “very obvious erythema”.
